Measured values as given in patent publication US7501422B2, “Prolinamide-tetrazole derivatives as NK3 receptor antagonists” (Hoffmann-La Roche Inc., priority 2007, dated 2009).

Key:
[1] = target: T1, recombinant human NK3 receptor (Homo sapiens, UniProt P29371); assay: [3H]SR142801 competition binding assay; settings: membranes from HEK293 cells transiently expressing recombinant human NK3 receptor; [3H]SR142801 radioligand; read-out: Data Ki (hNK-3 receptor affinity)
T1 construct: expressed in transfected cells; host or cells: HEK293 cells, transient expression; membranes
T1 sequence (P29371 1-465): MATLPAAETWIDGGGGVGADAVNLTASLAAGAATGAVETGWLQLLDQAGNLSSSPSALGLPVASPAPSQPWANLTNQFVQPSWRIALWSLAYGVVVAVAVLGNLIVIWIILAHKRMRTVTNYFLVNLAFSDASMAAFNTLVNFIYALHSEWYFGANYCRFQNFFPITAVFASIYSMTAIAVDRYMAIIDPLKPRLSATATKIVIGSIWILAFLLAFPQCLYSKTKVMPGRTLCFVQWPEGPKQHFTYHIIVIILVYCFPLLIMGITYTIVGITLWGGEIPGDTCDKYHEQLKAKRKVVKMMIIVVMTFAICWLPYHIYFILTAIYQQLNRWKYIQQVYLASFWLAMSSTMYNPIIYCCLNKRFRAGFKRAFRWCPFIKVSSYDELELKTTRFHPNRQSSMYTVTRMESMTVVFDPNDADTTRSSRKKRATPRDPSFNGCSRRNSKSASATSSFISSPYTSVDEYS
Procedure: [^3H]SR142801 Competition Binding Assay
hNK3 receptor binding experiment were performed using [^3H]SR142801 (Catalog No. TRK1035, specific activity: 74.0 Ci/mmol, Amersham, G E Healthcare UK limited, Buckinghamshire, UK) and membrane isolated from HEK293 cells transiently expressing recombinant human NK3 receptor. After thawing, the membrane homogenates were centrifuged at 48,000×g for 10 min at 4° C., the pellets were resuspended in the 50 mM Tris-HCl, 4 mM MnCl2, 1 μM phosphoramidon, 0.1% BSA binding buffer at pH 7.4 to a final assay concentration of 5 μg protein/well. For inhibition experiments, membranes were incubated with [^3H]SR142801 at a concentration equal to KD value of radioligand and 10 concentrations of the inhibitory compound (0.0003-10 μM) (in a total reaction volume of 500 μl) for 75 min at room temperature (RT). At the end of the incubation, membranes were filtered onto unitfilter (96-well white microplate with bonded GF/C filter preincubated 1 h in 0.3% PEI+0.3% BSA, Packard BioScience, Meriden, Conn.) with a Filtermate 196 harvester (Packard BioScience) and washed 4 times with ice-cold 50 mM Tris-HCl, pH 7.4 buffer. Nonspecific binding was measured in the presence of 10 μM SB222200 for both radioligands. The radioactivity on the filter was counted (5 min) on a Packard Top-count microplate scintillation counter with quenching correction after addition of 45 μl of microscint 40 (Can berra Packard S. A., Zürich, Switzerland) and shaking for 1 h. Inhibition curves were fitted according to the Hill equation: y=100/(1+(x/IC50)^nH), where nH=slope factor using Excel-fit 4 software (Microsoft). IC50 values were derived from the inhibition curve and the affinity constant (Ki) values were calculated using the Cheng-Prussoff equation Ki=IC50/(1+[L]/KD) where [L] is the concentration of radioligand and KD is its dissociation constant at the receptor, derived from the saturation isotherm. All experiments were performed in duplicate and the mean±standard error (SEM) of the individual Ki values was calculated.

NK3 tachykinin receptor = target: T2, NK3 tachykinin receptor (Homo sapiens, UniProt P29371); settings: phase II trial, cited from earlier work
T2 sequence (P29371 1-465): T1 sequence (P29371 1-465)

Structure (SMILES)	Ki [1] [µM]	activity in treatment of negative symptoms of schizophrenia (NK3 tachykinin receptor; negative symptoms (depression, anhedonia, social isolation, memory and attention deficits))	activity on positive symptoms of schizophrenia (NK3 tachykinin receptor; positive symptoms (altered behavior, delusion, hallucinations, extreme emotions, excited motor activity, incoherent speech))
N#Cc1ccccc1N1CCN(C(=O)[C@@H]2C[C@H](n3nnc(-c4ccc(F)cc4F)n3)CN2Cc2cccc(F)c2)CC1 [Example 3, 2-{4-[(2S,4S)-4-[5-(2,4-Difluoro-phenyl)-tetrazol-2-yl]-1-(3-fluoro-benzyl)-pyrrolidine-2-carbonyl]-piperazin-1-yl}-benzonitrile]	0.32	–	–
N#Cc1ccccc1N1CCN(C(=O)[C@@H]2C[C@H](n3nnc(-c4ccc(F)cc4F)n3)CN2Cc2ccccc2Cl)CC1 [Example 5, 2-(4-{(2S,4S)-1-(2-Chloro-benzyl)-4-[5-(2,4-difluoro-phenyl)-tetrazol-2-yl]-pyrrolidine-2-carbonyl}-piperazin-1-yl)-benzonitrile]	0.28	–	–
N#Cc1ccccc1N1CCN(C(=O)[C@@H]2C[C@H](n3nnc(-c4ccc(F)cc4F)n3)CN2Cc2cccc(Cl)c2)CC1 [Example 6, 2-(4-{(2S,4S)-1-(3-Chloro-benzyl)-4-[5-(2,4-difluoro-phenyl)-tetrazol-2-yl]-pyrrolidine-2-carbonyl}-piperazin-1-yl)-benzonitrile]	0.295	–	–
N#Cc1ccccc1N1CCN(C(=O)[C@@H]2C[C@H](n3nnc(-c4ccc(F)cc4F)n3)CN2Cc2ccc(Cl)cc2)CC1 [Example 7, 2-(4-{(2S,4S)-1-(4-Chloro-benzyl)-4-[5-(2,4-difluoro-phenyl)-tetrazol-2-yl]-pyrrolidine-2-carbonyl}-piperazin-1-yl)-benzonitrile]	0.208	–	–
CC(=O)N(C)C1(c2ccccc2)CCN(CCC[C@]2(c3ccc(Cl)c(Cl)c3)CCCN(C(=O)c3ccccc3)C2)CC1 [SR 142,801, Osanetant]	–	inactive	active

Continued, in another order:

Ki [1] [µM]	Structure (SMILES)	activity in treatment of negative symptoms of schizophrenia (NK3 tachykinin receptor; negative symptoms (depression, anhedonia, social isolation, memory and attention deficits))	activity on positive symptoms of schizophrenia (NK3 tachykinin receptor; positive symptoms (altered behavior, delusion, hallucinations, extreme emotions, excited motor activity, incoherent speech))
0.084	N#Cc1ccccc1N1CCN(C(=O)[C@@H]2C[C@H](n3nnc(-c4ccc(F)cc4F)n3)CN2Cc2ccccc2)CC1 [Example 1, 2-(4-{(2S,4S)-1-Benzyl-4-[5-(2,4-difluoro-phenyl)-tetrazol-2-yl]-pyrrolidine-2-carbonyl}-piperazin-1-yl)-benzonitrile]	–	–
0.023	N#Cc1ccccc1N1CCN(C(=O)[C@@H]2C[C@H](n3nnc(-c4ccc(F)cc4F)n3)CN2Cc2ccccc2F)CC1 [Example 2, 2-{4-[(2S,4S)-4-[5-(2,4-Difluoro-phenyl)-tetrazol-2-yl]-1-(2-fluoro-benzyl)-pyrrolidine-2-carbonyl]-piperazin-1-yl}-benzonitrile]	–	–
0.965	N#Cc1ccccc1N1CCN(C(=O)[C@@H]2C[C@H](n3nnc(-c4ccc(F)cc4F)n3)CN2Cc2ccc(F)cc2)CC1 [Example 4, 2-{4-[(2S,4S)-4-[5-(2,4-Difluoro-phenyl)-tetrazol-2-yl]-1-(4-fluoro-benzyl)-pyrrolidine-2-carbonyl]-piperazin-1-yl}-benzonitrile]	–	–
0.696	N#Cc1ccccc1N1CCN(C(=O)[C@@H]2C[C@H](n3nnc(-c4ccc(F)cc4F)n3)CN2CC2CCCCC2)CC1 [Example 8, 2-(4-{(2S,4S)-1-Cyclohexylmethyl-4-[5-(2,4-difluoro-phenyl)-tetrazol-2-yl]-pyrrolidine-2-carbonyl}-piperazin-1-yl)-benzonitrile]	–	–
0.387	N#Cc1ccccc1N1CCN(C(=O)[C@@H]2C[C@H](n3nnc(-c4ccc(F)cc4F)n3)CN2Cc2ccc(F)c(F)c2)CC1 [Example 9, 2-(4-{(2S,4S)-1-(3,4-Difluoro-benzyl)-4-[5-(2,4-difluoro-phenyl)-tetrazol-2-yl]-pyrrolidine-2-carbonyl}-piperazin-1-yl)-benzonitrile]	–	–
